pKi: −log10 of the molar value.
Assays:
Rattus norvegicus [1] = organism: Rattus norvegicus; test: Biological activity was determined by pressor test using pithed rat preparations (protracted action); format: functional
Rattus norvegicus [2] = test: Biological activity was determined by uterotonic in vivo test using urethane-anesthetized rats (protracted action); format: functional
Rattus norvegicus [3] = organism: Rattus norvegicus; test: Biological activity was determined by uterotonic in vitro test in magnesium-free solution; format: functional
Oxytocin receptor = molecular target: T1, Oxytocin receptor (Rattus norvegicus, UniProt P70536); test: Binding affinity against Oxytocin receptor was determined in rat uterine membrane using radioligand [3H]oxytocin; format: cell membranes
T1 sequence (P70536 whole entry): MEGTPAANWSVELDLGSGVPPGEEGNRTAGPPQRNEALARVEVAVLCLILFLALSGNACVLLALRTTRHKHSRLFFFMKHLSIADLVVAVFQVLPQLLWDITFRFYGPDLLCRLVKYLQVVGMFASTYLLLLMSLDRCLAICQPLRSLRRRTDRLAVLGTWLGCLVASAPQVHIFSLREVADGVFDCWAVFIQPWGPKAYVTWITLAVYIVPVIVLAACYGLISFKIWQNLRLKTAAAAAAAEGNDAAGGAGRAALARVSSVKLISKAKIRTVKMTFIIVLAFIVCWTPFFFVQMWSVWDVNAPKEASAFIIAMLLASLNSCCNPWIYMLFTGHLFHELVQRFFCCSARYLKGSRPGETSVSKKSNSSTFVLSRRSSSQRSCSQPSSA

Rattus norvegicus [4] = organism: Rattus norvegicus; test: Biological activity was determined by pressor test using pithed rat preparations; format: functional
Rattus norvegicus [5] = test: Biological activity was determined by uterotonic in vivo test using urethane-anesthetized rats; format: functional

Structure (SMILES)	Activity (Rattus norvegicus [1])	Activity (Rattus norvegicus [2])	Activity (Rattus norvegicus [3])	pKi (Oxytocin receptor)	Activity (Rattus norvegicus [4])	Activity (Rattus norvegicus [5])
CC[C@H](C)[C@@H]1NC(=O)[C@H](Cc2ccc(O)cc2)NC(=O)CCSSSC[C@H](C(=O)N2CCC[C@H]2C(=O)N[C@@H](CC(C)C)C(=O)NCC(N)=O)NC(=O)[C@H](CC(N)=O)NC(=O)[C@H](CCC(N)=O)NC1=O [DEAMINOOXYTOCIN TRISULFIDE]	0.6 IU mg-1	135 IU mg-1	32.7 IU mg-1	8.52		
CC[C@H](C)[C@@H]1NC(=O)[C@H](Cc2ccc(O)cc2)NC(=O)CCSSC[C@@H](C(=O)N2CCC[C@H]2C(=O)N[C@@H](CC(C)C)C(=O)NCC(N)=O)NC(=O)[C@H](CC(N)=O)NC(=O)[C@H](CCC(N)=O)NC1=O [DEMOXYTOCIN]		541 IU mg-1	576 IU mg-1	9.05	5 IU mg-1	
CC[C@H](C)[C@@H]1NC(=O)[C@H](Cc2ccc(O)cc2)NC(=O)[C@@H](N)CSSSC[C@@H](C(=O)N2CCC[C@H]2C(=O)N[C@@H](CC(C)C)C(=O)NCC(N)=O)NC(=O)[C@H](CC(N)=O)NC(=O)[C@H](CCC(N)=O)NC1=O [OXYTOCIN TRISULFIDE]				8.22		
CC[C@H](C)[C@@H]1NC(=O)[C@H](Cc2ccc(O)cc2)NC(=O)[C@@H](N)CSSC[C@@H](C(=O)N2CCC[C@H]2C(=O)N[C@@H](CC(C)C)C(=O)NCC(N)=O)NC(=O)[C@H](CC(N)=O)NC(=O)[C@H](CCC(N)=O)NC1=O [OXYTOCIN]			510 IU mg-1		5 IU mg-1	450 IU mg-1

— ChEMBL document CHEMBL1129969 (J Med Chem, 1997)
